From ChEMBL document CHEMBL1201862, “PubChem BioAssay data set” (2004)
Activity calls are given as the source filed them.

Assays:
[1] = cytotoxicity toward NIH3T3 fibroblasts, dose response, counter-screen, cell-based, ATP luminescence, mouse fibroblasts (AID 2010); format: functional;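 note: cells exposed to compound for about 90 hours before reading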
[2] = inhibitors of intracellular T. cruzi replication, confirmation, NIH3T3 host cells, beta-gal luminescence (AID 2044); format: functional, cell-based;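 note: intracellular parasites grown in NIH/3T3 mouse fibroblasts as host cells; luminescent beta-galactosidase reporter signal from transgenic T. cruzi replicating inside host cells; inhibitors lower the luminescence signal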
[3] = target: DNA repair protein RAD52 homolog (Homo sapiens, UniProt P43351); format: functional, biochemical
Chain of DNA repair protein RAD52 homolog (P43351 whole entry): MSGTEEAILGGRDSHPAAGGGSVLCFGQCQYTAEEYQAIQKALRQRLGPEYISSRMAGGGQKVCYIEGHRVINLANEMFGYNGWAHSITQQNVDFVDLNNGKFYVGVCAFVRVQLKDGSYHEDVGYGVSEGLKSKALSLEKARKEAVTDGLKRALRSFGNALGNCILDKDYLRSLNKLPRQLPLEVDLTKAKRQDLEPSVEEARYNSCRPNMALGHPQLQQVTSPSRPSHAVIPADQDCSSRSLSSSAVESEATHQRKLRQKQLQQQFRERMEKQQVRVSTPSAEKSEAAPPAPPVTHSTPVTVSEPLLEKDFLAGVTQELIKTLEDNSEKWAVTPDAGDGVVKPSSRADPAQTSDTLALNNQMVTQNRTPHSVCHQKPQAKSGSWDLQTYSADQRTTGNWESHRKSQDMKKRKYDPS

[4] = Luminescence Cell-Based Dose Retest to Confirm Inhibitors of Cancer Stem Cells. [Related pubchem assays (depositor defined):AID2717, AID2721]; format: functional; details: Homo sapiens
[5] = human group III sPLA2 inhibitors, dose response, biochemical, QFRET, IC50 (AID 743457);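 note: green fluorescence rise as the enzyme cleaves BODIPY PC-A2 in liposomes; potency for inhibition of the enzyme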
[6] = StAR promoter reporter inhibition counter-screen, dose response, counter-screen for LRH-1 inverse agonist project, cell-based, luminescence, luciferase reporter (AID 651969); format: functional
[7] = target: Steroidogenic factor 1 (Homo sapiens, UniProt Q13285); experiment: Counterscreen for inverse agonists of the liver receptor homolog-1 (LRH-1; NR5A2): Luminescence-based cell-based high throughput dose response assay to identify inverse agonists of the Steroidogenic Factor 1 Nuclear Receptor (SF1; NR5A1).; format: functional
Chain of Steroidogenic factor 1 (Q13285 whole entry): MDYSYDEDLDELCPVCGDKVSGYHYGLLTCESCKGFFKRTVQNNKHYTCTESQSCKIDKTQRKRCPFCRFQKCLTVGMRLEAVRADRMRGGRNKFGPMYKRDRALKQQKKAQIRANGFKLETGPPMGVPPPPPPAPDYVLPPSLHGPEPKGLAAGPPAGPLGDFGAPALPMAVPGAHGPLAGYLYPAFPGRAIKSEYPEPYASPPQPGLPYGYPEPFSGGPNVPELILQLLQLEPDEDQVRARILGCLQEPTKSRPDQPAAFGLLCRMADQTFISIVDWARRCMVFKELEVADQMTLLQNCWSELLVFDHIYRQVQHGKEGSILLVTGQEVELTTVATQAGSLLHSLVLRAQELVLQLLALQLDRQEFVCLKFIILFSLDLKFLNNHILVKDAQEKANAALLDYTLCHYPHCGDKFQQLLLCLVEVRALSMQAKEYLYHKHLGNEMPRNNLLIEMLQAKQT

[8] = target: Nuclear receptor subfamily 5 group A member 2 (Homo sapiens, UniProt O00482); format: functional, cell-based;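 note: HEK293T cells transfected with LRH-1 and a StAR promoter luciferase reporter; potency for inhibitors that lower LRH-1 driven reporter light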
[9] = target: T1, Beta-galactosidase (Escherichia coli, UniProt Q8VNN2); experiment: Dose response counterscreen for EBI2 assay utilizing the enzyme, b-galactosidase.; format: functional
T1 sequence (Q8VNN2 whole entry): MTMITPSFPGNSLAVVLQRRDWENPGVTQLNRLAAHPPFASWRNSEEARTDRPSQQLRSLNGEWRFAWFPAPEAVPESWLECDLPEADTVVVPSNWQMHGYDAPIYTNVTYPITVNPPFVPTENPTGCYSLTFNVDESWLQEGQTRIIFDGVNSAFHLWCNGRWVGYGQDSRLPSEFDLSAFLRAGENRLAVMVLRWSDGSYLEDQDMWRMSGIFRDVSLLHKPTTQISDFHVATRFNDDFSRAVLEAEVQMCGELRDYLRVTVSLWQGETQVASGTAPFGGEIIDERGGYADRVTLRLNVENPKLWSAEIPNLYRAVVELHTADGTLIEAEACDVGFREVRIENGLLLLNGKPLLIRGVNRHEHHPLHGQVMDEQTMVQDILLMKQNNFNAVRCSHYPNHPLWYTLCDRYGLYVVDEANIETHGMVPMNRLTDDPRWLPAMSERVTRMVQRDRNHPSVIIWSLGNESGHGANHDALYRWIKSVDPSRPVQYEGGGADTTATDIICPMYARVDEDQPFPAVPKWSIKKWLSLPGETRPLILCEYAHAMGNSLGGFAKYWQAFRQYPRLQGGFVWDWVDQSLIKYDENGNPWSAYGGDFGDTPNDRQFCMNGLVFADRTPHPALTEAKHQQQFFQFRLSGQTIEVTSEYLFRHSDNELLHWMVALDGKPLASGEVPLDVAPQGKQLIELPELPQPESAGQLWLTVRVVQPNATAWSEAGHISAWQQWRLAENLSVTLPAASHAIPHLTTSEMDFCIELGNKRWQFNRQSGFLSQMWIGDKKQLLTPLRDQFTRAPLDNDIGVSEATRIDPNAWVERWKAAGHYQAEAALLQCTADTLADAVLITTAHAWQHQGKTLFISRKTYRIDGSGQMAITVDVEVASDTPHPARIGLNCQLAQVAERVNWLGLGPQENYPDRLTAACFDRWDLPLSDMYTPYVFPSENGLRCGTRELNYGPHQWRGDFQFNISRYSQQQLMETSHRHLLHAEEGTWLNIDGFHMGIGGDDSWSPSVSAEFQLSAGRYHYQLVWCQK

[10] = target: Melanocortin receptor 4 (Homo sapiens, UniProt P32245); format: functional, cell-based;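 note: Cell-based assay with luminescence read-out, confirmatory dose-response testing for agonist activity of biased ligands at MC4R; human U2OS cells with tagged receptor and beta-arrestin; potency of agonists that increase receptor coupling to beta-arrestin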
Chain of Melanocortin receptor 4 (P32245 whole entry): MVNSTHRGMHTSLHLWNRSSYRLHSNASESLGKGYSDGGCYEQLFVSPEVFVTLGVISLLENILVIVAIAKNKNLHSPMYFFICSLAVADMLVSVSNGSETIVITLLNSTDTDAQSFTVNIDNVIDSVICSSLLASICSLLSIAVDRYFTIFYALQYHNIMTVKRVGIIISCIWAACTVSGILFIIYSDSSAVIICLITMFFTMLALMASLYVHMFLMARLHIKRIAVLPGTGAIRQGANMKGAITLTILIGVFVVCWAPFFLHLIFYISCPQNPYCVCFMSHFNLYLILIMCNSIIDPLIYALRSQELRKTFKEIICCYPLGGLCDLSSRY

[11] = target: Botulinum neurotoxin type F (Clostridium botulinum, UniProt P30996); experiment: High-throughput multiplex microsphere dose response for inhibitors of toxin protease, specifically Botulinum neurotoxin light chain F protease, compounds from Cherry Pick 02.; format: functional; details: read-out: EC50_MICROM
Chain of Botulinum neurotoxin type F (P30996 1-436 limits assumed): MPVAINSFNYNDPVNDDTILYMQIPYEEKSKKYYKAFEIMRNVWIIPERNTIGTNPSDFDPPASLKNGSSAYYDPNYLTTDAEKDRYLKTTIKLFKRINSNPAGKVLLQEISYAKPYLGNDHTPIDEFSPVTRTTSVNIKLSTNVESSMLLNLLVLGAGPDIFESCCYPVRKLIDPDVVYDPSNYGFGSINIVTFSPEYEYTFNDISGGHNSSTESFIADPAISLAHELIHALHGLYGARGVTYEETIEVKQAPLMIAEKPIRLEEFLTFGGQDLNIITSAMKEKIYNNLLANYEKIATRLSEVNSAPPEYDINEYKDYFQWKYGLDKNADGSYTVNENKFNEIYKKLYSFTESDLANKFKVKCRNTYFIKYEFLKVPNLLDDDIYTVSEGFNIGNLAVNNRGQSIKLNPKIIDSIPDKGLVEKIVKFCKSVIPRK

[12] = cells; format: functional, cell-based
[13] = cells; format: functional, cell-based; remark: listed apart in the source
[14] = target: T2, Trace amine-associated receptor 1 (Homo sapiens, UniProt Q96RJ0); experiment: Fluorescence-based cell-based high throughput dose response assay to identify agonists of the human trace amine associated receptor 1 (TAAR1).; format: functional
T2 sequence (Q96RJ0 whole entry): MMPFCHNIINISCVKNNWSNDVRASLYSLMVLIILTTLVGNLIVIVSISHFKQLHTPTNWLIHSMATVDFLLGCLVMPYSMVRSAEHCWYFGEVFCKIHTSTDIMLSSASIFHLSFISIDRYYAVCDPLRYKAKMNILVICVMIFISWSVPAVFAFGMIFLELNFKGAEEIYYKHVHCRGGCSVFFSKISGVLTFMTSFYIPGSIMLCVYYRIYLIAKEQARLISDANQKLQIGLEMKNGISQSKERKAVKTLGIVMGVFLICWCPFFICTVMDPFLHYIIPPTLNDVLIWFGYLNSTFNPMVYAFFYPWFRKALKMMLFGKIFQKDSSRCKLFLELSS

[15] = target: T2, Trace amine-associated receptor 1; experiment: Counterscreen for agonists of the human trace amine associated receptor 1 (hTAAR1): Fluorescence-based cell-based high throughput dose response assay to identify hTAAR1 agonist that also desensitize TAAR1 receptor response.; format: functional
[16] = target: Nuclear receptor subfamily 0 group B member 1 (Homo sapiens, UniProt P51843); format: functional, cell-based;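 note: HEK293T cells transfected with SF-1 and DAX-1 plus StAR promoter luciferase reporter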
[17] = cells; format: functional, cell-based; remark: listed apart in the source
[18] = target: Fructose-bisphosphate aldolase (Mycobacterium tuberculosis, UniProt P9WQA3); experiment: Fluorescence-based biochemical high throughput dose response assay for inhibitors of the fructose-bisphosphate aldolase (FBA) of M. tuberculosis.; format: functional
Chain of Fructose-bisphosphate aldolase (P9WQA3 whole entry): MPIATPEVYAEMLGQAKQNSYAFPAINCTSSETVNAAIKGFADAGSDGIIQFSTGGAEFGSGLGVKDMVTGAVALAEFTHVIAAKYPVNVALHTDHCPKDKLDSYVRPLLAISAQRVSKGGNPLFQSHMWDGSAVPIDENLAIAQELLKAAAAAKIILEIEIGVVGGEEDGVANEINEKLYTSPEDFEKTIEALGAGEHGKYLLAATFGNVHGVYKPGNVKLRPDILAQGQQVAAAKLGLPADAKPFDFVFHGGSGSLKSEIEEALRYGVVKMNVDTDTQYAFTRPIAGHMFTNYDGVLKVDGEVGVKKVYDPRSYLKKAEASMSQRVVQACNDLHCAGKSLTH

[19] = target: SWI/SNF-related matrix-associated actin-dependent regulator of chromatin subfamily A member 2 (Homo sapiens, UniProt P51531); experiment: Luminescence-based cell-based high throughput dose response assay to identify activators of the function of SWI/SNF related, matrix associated, actin dependent regulator of chromatin, subfamily a, member 2 (SMARCA2, BRM).; format: functional
[20] = Counterscreen for activators of the function of SWI/SNF related, matrix associated, actin dependent regulator of chromatin, subfamily a, member 2 (SMARCA2, BRM): Luminescence-based cell-based high throughput dose response assay to identify non-selective compounds using the VP16 reporter assay.; format: functional
[21] = target: T3, Delta-type opioid receptor (Homo sapiens, UniProt P41143); experiment: HTS Image-Based Screen for Antagonists of the DOR Receptor. [Related pubchem assays (depositor defined):AID1777, AID1785, AID1786, AID2133]; format: functional
T3 sequence (P41143 whole entry): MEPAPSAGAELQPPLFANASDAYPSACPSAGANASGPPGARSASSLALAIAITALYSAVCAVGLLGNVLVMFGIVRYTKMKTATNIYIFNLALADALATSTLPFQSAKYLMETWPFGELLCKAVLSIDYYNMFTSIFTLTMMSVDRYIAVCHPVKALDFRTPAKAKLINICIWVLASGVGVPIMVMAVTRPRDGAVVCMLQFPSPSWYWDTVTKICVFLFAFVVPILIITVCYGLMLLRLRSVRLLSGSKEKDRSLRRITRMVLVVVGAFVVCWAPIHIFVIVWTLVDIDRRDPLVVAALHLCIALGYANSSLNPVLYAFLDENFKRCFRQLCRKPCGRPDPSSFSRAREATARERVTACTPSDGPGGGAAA

[22] = target: T4, Kappa-type opioid receptor (Homo sapiens, UniProt P41145); format: functional
T4 sequence (P41145 whole entry): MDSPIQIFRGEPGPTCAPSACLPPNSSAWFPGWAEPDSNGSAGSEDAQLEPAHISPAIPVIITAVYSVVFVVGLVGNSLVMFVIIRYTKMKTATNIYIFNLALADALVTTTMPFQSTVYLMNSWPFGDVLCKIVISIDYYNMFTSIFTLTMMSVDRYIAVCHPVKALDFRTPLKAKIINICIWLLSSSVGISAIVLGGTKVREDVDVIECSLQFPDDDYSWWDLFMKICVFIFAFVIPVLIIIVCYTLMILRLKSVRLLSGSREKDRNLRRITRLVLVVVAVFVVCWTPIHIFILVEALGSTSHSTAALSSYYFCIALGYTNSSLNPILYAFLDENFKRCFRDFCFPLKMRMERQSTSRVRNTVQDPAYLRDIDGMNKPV

[23] = target: T1, Beta-galactosidase; format: functional
[24] = target: T3, Delta-type opioid receptor; experiment: HTS Image-Based Screen for Agonists of the DOR Receptor. [Related pubchem assays (depositor defined):AID1777, AID1786, AID2133]; format: functional
[25] = target: Mu-type opioid receptor (Homo sapiens, UniProt P35372); experiment: HTS Image-Based Screen for Agonists of the MOR Receptor. [Related pubchem assays (depositor defined):AID1777, AID1785, AID1786, AID2133]; format: functional;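 note: imaging of beta-arrestin GFP recruitment into spots after receptor activation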
Chain of Mu-type opioid receptor (P35372 whole entry): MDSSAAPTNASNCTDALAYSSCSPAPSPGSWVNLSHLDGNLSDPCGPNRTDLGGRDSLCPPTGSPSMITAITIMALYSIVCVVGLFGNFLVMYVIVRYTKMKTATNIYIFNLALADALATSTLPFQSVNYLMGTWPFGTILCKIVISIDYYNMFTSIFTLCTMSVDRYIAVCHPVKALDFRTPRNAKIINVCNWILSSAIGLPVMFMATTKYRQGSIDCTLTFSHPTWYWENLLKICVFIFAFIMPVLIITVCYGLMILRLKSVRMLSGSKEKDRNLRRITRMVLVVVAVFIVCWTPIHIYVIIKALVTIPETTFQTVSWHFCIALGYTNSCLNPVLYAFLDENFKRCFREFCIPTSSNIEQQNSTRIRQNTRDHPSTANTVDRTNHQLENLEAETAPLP

[26] = target: T4, Kappa-type opioid receptor; format: functional; remark: listed apart in the source
[27] = ADAM10 inhibitors, peptide cleavage, dose response, biochemical, QFRET (AID 743254);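 note: ADAM10 enzyme with the DM2 quenched FRET peptide as substrate; EDANS fluorescence gain as the protease cuts the substrate; inhibitor potency against ADAM10 proteolytic activity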
[28] = target: Disintegrin and metalloproteinase domain-containing protein 17 (Homo sapiens, UniProt P78536); experiment: ADAM17 protease inhibitors, dose response, counter-screen for ADAM10 exosite inhibitor project, biochemical, quenched FRET substrate (AID 743253)
Chain of Disintegrin and metalloproteinase domain-containing protein 17 (P78536 whole entry, the tested form may be a part): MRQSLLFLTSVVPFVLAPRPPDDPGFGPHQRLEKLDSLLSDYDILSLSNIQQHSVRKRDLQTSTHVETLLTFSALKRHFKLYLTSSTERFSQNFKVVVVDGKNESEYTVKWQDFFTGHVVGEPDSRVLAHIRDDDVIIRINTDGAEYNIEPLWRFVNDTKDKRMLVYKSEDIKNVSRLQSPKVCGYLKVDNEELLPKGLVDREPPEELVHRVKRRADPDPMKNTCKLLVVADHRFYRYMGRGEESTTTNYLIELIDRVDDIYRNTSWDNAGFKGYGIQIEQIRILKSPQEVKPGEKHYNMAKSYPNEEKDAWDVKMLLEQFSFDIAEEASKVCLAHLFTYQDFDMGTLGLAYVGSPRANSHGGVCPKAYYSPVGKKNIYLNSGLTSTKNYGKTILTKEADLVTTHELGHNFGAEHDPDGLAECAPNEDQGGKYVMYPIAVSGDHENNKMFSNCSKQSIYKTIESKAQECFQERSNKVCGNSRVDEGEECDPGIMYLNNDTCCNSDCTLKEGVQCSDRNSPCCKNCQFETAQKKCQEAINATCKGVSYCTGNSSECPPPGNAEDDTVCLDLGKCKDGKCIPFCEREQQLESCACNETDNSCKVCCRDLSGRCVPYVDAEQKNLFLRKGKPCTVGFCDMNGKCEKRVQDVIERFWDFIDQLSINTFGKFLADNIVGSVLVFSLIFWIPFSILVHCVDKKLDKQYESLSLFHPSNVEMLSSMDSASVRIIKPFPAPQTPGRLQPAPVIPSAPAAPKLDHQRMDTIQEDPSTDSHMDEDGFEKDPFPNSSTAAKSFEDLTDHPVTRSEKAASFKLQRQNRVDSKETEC

Structure (SMILES): Cc1cc(N2CCN(C)CC2)nc2ccc(NC(S)=NCCC(C)C)cc12
- EC50 [1]: 8.05 µM (active)
- EC50 [2]: 0.746 µM (active)
- AC50 [3]: 28.2 µM (active)
- AC50 [4]: 1.24 µM (active)

Structure (SMILES): Nc1cc(N)c2c(c1)C(=O)c1ccccc1-2
- IC50 [5]: > 122 µM (inactive)

Structure (SMILES): CCCc1cc(=O)oc2cc(OCC(=O)NCCc3ccc(S(N)(=O)=O)cc3)ccc12
- IC50 [6]: 35.9 µM (inactive)
- IC50 [7]: 7.47 µM (active)
- IC50 [8]: 35.9 µM (inactive)

Structure (SMILES): CC(=O)Nc1cc(-c2ccc(N(C)C)cc2)cn2c(-c3ccc(F)cc3)cnc12
- IC50 [9]: > 80 µM (inactive)
- EC50 [10]: > 9.91 µM (active)

Structure (SMILES): COc1ccccc1C(CNC(=O)c1ccc(C)c(S(=O)(=O)N2CCCCC2)c1)N1CCCC1 (centres undefined)
- EC50 [11]: > 20 µM (inactive)

Structure (SMILES): COC(=O)[C@]12CCCCC=C1N(Cc1ccccc1)C(=O)[C@H](CC(=O)NCCc1ccccc1OC)C2
- IC50 [12]: 27.7 µM (inactive)
- EC50 [13]: > 29.9 µM (inactive)
- EC50 [14]: 2.49 µM (active)
- IC50 [15]: 4.83 µM (active)

Structure (SMILES): CCOc1ccc(NC(=O)c2ccc3c(c2)N(C)CCS3)cc1
- IC50 [16]: > 67.6 µM (inactive)
- IC50 [17]: > 67.6 µM (inactive)

Structure (SMILES): C(=C\c1ccc2nncn2c1)/c1ccccc1
- IC50 [18]: 1.45 µM (active)

Structure (SMILES): COc1ccc(-c2cc(=O)n(-c3nc4ccccc4[nH]3)[nH]2)cc1
- EC50 [19]: > 91.2 µM (inactive)
- EC50 [20]: > 91.2 µM (inactive)
- IC50 [21]: > 32 µM (inactive)
- IC50 [22]: > 32 µM
- EC50 [23]: > 31.5 µM (inactive)
- EC50 [24]: > 32 µM (inactive)
- EC50 [25]: > 32 µM (inactive)
- IC50 [26]: 9.08 µM (active)

Structure (SMILES): CCN(CC)c1ccc(NC(=O)CSc2nc3ccccc3c(=O)n2-c2ccc(C)cc2)cc1
- IC50 [27]: > 69.5 µM (inactive)
- IC50 [5]: 60.3 µM (inactive)
- IC50 [28]: > 69.5 µM (inactive)
